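In this assay, cells in 96-well plates receive the compound at five concentrations for 48 hours. Endpoints are linearly interpolated between the surrounding concentrations. GI50 marks 50% less growth. The concentration for full growth arrest is given as TGI.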
Legend:
Experiment in all cases: DTP human tumour cell line panel, 48 h
NCI/ADR-RES ovarian = system: NCI/ADR-RES ovarian
CAKI-1 renal = system: CAKI-1 renal
UACC-62 melanoma = system: UACC-62 melanoma
MCF7 breast = system: MCF7 breast
HCT-15 colon = system: HCT-15 colon
ACHN renal = system: ACHN renal
HS 578T breast = system: HS 578T breast
SK-MEL-28 melanoma = system: SK-MEL-28 melanoma
SW-620 colon = system: SW-620 colon
SK-MEL-5 melanoma = system: SK-MEL-5 melanoma
OVCAR-8 ovarian = system: OVCAR-8 ovarian
786-0 renal = system: 786-0 renal
CCRF-CEM leukemia = system: CCRF-CEM leukemia
SF-539 CNS = system: SF-539 CNS
MALME-3M melanoma = system: MALME-3M melanoma
HL-60(TB) leukemia = system: HL-60(TB) leukemia
EKVX NSCLC = system: EKVX NSCLC
T-47D breast = system: T-47D breast
M14 melanoma = system: M14 melanoma
SR leukemia = system: SR leukemia
SNB-75 CNS = system: SNB-75 CNS
NCI-H522 lung = system: NCI-H522 lung
PC-3 prostate = system: PC-3 prostate
NCI-H226 lung = system: NCI-H226 lung
HOP-92 NSCLC = system: HOP-92 NSCLC
KM12 colon = system: KM12 colon
A498 renal = system: A498 renal
A549 NSCLC = system: A549 NSCLC
UACC-257 melanoma = system: UACC-257 melanoma
SF-268 CNS = system: SF-268 CNS
TK-10 renal = system: TK-10 renal
DU-145 prostate = system: DU-145 prostate
SN12C renal = system: SN12C renal
COLO 205 colon = system: COLO 205 colon
BT-549 breast = system: BT-549 breast
UO-31 renal = system: UO-31 renal
U251 CNS = system: U251 CNS
IGROV1 ovarian = system: IGROV1 ovarian
HOP-62 NSCLC = system: HOP-62 NSCLC
NCI-H460 lung = system: NCI-H460 lung
MDA-MB-231 breast = system: MDA-MB-231 breast
MDA-MB-435 = system: MDA-MB-435
SK-OV-3 ovarian = system: SK-OV-3 ovarian
SNB-19 CNS = system: SNB-19 CNS
LOX IMVI melanoma = system: LOX IMVI melanoma
NCI-H23 lung = system: NCI-H23 lung
HCT-116 colon = system: HCT-116 colon
SK-MEL-2 melanoma = system: SK-MEL-2 melanoma
MOLT-4 leukemia = system: MOLT-4 leukemia
HT29 colon = system: HT29 colon
OVCAR-3 ovarian = system: OVCAR-3 ovarian
OVCAR-4 ovarian = system: OVCAR-4 ovarian
SF-295 CNS = system: SF-295 CNS
RPMI-8226 leukemia = system: RPMI-8226 leukemia
RXF 393 renal = system: RXF 393 renal
OVCAR-5 ovarian = system: OVCAR-5 ovarian
HCC-2998 colon = system: HCC-2998 colon
K-562 leukemia = system: K-562 leukemia
MDA-N = system: MDA-N

## Cc1cc(I)cc(CNCCN(C)C)c1O
NCI/ADR-RES ovarian
  GI50: > 84.5 µM
  TGI: > 100 µM
CAKI-1 renal
  GI50: 50.1 µM
  TGI: > 100 µM
UACC-62 melanoma
  GI50: 19.7 µM
  TGI: 39.2 µM
MCF7 breast
  GI50: > 100 µM
  TGI: > 100 µM
HCT-15 colon
  GI50: 43.8 µM
  TGI: > 100 µM
ACHN renal
  GI50: > 79.6 µM
  TGI: > 100 µM
HS 578T breast
  GI50: 49.5 µM
  TGI: > 100 µM
SK-MEL-28 melanoma
  GI50: 28.5 µM
  TGI: > 80.4 µM
SW-620 colon
  GI50: > 100 µM
  TGI: > 100 µM
SK-MEL-5 melanoma
  GI50: 27.9 µM
  TGI: > 80.8 µM
OVCAR-8 ovarian
  GI50: > 100 µM
  TGI: > 100 µM
786-0 renal
  GI50: > 92.2 µM
  TGI: > 100 µM
CCRF-CEM leukemia
  GI50: > 100 µM
  TGI: > 100 µM
SF-539 CNS
  GI50: > 89.9 µM
  TGI: > 100 µM
MALME-3M melanoma
  GI50: > 87.8 µM
  TGI: > 100 µM
HL-60(TB) leukemia
  GI50: 57.8 µM
  TGI: > 100 µM
EKVX NSCLC
  GI50: > 100 µM
  TGI: > 100 µM
T-47D breast
  GI50: 76.3 µM
  TGI: > 100 µM
M14 melanoma
  GI50: 33.9 µM
  TGI: > 100 µM
SR leukemia
  TGI: 0.383 µM
SNB-75 CNS
  GI50: 49.4 µM
  TGI: > 100 µM
NCI-H522 lung
  GI50: > 86.3 µM
  TGI: > 100 µM
PC-3 prostate
  GI50: > 84 µM
  TGI: > 100 µM
NCI-H226 lung
  GI50: > 100 µM
  TGI: > 100 µM
HOP-92 NSCLC
  GI50: 37.2 µM
  TGI: > 100 µM
KM12 colon
  GI50: > 100 µM
  TGI: > 100 µM
A498 renal
  GI50: 61.5 µM
  TGI: > 100 µM
A549 NSCLC
  GI50: 99.7 µM
  TGI: > 100 µM
UACC-257 melanoma
  GI50: > 62.5 µM
  TGI: > 100 µM
SF-268 CNS
  GI50: 65.9 µM
  TGI: > 100 µM
TK-10 renal
  GI50: > 91.6 µM
  TGI: > 100 µM
DU-145 prostate
  GI50: 98.8 µM
  TGI: > 100 µM
SN12C renal
  GI50: > 85.6 µM
  TGI: > 100 µM
COLO 205 colon
  GI50: > 100 µM
  TGI: > 100 µM
BT-549 breast
  GI50: 37.5 µM
  TGI: > 100 µM
UO-31 renal
  GI50: 60.5 µM
  TGI: > 100 µM
U251 CNS
  GI50: 73.5 µM
  TGI: > 100 µM
IGROV1 ovarian
  GI50: 48.4 µM
  TGI: > 100 µM
HOP-62 NSCLC
  GI50: > 100 µM
  TGI: > 100 µM
NCI-H460 lung
  GI50: 44.1 µM
  TGI: > 100 µM
MDA-MB-231 breast
  GI50: > 59.5 µM
  TGI: > 100 µM
MDA-MB-435
  GI50: 37.1 µM
  TGI: > 100 µM
SK-OV-3 ovarian
  GI50: > 100 µM
  TGI: > 100 µM
SNB-19 CNS
  GI50: > 100 µM
  TGI: > 100 µM
LOX IMVI melanoma
  GI50: 44.3 µM
  TGI: > 100 µM
NCI-H23 lung
  GI50: 97.3 µM
  TGI: > 100 µM
HCT-116 colon
  GI50: > 68 µM
  TGI: > 100 µM
SK-MEL-2 melanoma
  GI50: > 77.2 µM
  TGI: > 100 µM
MOLT-4 leukemia
  GI50: 44.6 µM
  TGI: > 100 µM
HT29 colon
  GI50: 35.2 µM
  TGI: > 100 µM
OVCAR-3 ovarian
  GI50: > 86 µM
  TGI: > 100 µM
OVCAR-4 ovarian
  GI50: > 93.1 µM
  TGI: > 100 µM
SF-295 CNS
  GI50: 42.6 µM
  TGI: > 88.1 µM
RPMI-8226 leukemia
  GI50: 35.2 µM
  TGI: > 100 µM
RXF 393 renal
  GI50: 30.6 µM
  TGI: > 100 µM
OVCAR-5 ovarian
  GI50: > 100 µM
  TGI: > 100 µM
HCC-2998 colon
  GI50: 35.1 µM
  TGI: > 100 µM
K-562 leukemia
  GI50: > 76.1 µM
  TGI: > 100 µM

## NC(Cc1ccc(CP(=O)(O)O)cc1)C(=O)O (stereo not drawn)
NCI/ADR-RES ovarian
  TGI: > 100 µM
CAKI-1 renal
  TGI: > 100 µM
UACC-62 melanoma
  TGI: > 100 µM
MCF7 breast
  TGI: > 100 µM
HCT-15 colon
  TGI: > 100 µM
ACHN renal
  TGI: > 100 µM
HS 578T breast
  TGI: > 100 µM
SK-MEL-28 melanoma
  TGI: > 100 µM
SW-620 colon
  TGI: > 100 µM
SK-MEL-5 melanoma
  TGI: > 100 µM
OVCAR-8 ovarian
  TGI: > 100 µM
CCRF-CEM leukemia
  TGI: > 100 µM
SF-539 CNS
  TGI: > 100 µM
HL-60(TB) leukemia
  TGI: > 100 µM
EKVX NSCLC
  TGI: > 100 µM
T-47D breast
  TGI: > 100 µM
M14 melanoma
  TGI: > 100 µM
SR leukemia
  TGI: > 100 µM
SNB-75 CNS
  TGI: > 100 µM
NCI-H522 lung
  TGI: > 100 µM
PC-3 prostate
  TGI: > 100 µM
HOP-92 NSCLC
  TGI: > 100 µM
KM12 colon
  TGI: > 100 µM
A549 NSCLC
  TGI: > 100 µM
UACC-257 melanoma
  TGI: > 100 µM
SF-268 CNS
  TGI: > 100 µM
TK-10 renal
  TGI: > 100 µM
DU-145 prostate
  TGI: > 100 µM
SN12C renal
  TGI: > 100 µM
COLO 205 colon
  TGI: > 100 µM
UO-31 renal
  TGI: > 100 µM
U251 CNS
  TGI: > 100 µM
IGROV1 ovarian
  TGI: > 100 µM
NCI-H460 lung
  TGI: > 100 µM
MDA-MB-231 breast
  TGI: > 100 µM
MDA-MB-435
  TGI: > 100 µM
SK-OV-3 ovarian
  TGI: > 100 µM
SNB-19 CNS
  TGI: > 100 µM
LOX IMVI melanoma
  TGI: > 100 µM
NCI-H23 lung
  TGI: > 100 µM
MDA-N
  TGI: > 100 µM
HCT-116 colon
  TGI: > 100 µM
SK-MEL-2 melanoma
  TGI: > 100 µM
MOLT-4 leukemia
  TGI: > 100 µM
HT29 colon
  TGI: > 100 µM
OVCAR-3 ovarian
  TGI: > 100 µM
OVCAR-4 ovarian
  TGI: > 100 µM
SF-295 CNS
  TGI: > 100 µM
RPMI-8226 leukemia
  TGI: > 100 µM
RXF 393 renal
  TGI: > 100 µM
OVCAR-5 ovarian
  TGI: > 100 µM
HCC-2998 colon
  TGI: > 100 µM
K-562 leukemia
  TGI: > 100 µM
